Experimental data reported in patent publication US9266834B2, “1, 4-disubstituted 3-cyano-pyridone derivatives and their use as positive allosteric modulators of MGLUR2-receptors” (JANSSEN PHARMACEUTICALS, INC., priority 2006, dated 2016).

How the values were obtained:
[1] = target: T1, human mGluR2 receptor (Homo sapiens, UniProt Q14416); assay: [35S]GTPγS binding assay (GTPγS-PAM): positive allosteric modulation in presence of glutamate at EC25, membranes from transfected CHO cells; format: biochemical; conditions: in presence of mGluR2 agonist glutamate at predetermined EC25 concentration, averages of duplicate values of 11-concentration response curves, read-out: GTPgS - hR2 PAM pEC50 (converted)
T1 construct: expressed in transfected cells; host or cells: CHO cells (membrane preparation)
Method in brief: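 Potentiation was read as filter-retained [35S]GTPγS (0.1 nM final, 30 min, 30° C.) after a 30 min, 30° C. preincubation of human mGluR2 CHO membranes (15 μg/well) with EC25 glutamate and 11 modulator concentrations spanning 0.3 nM-50 μM. The buffer was 50 mM HEPES pH 7.4, NaCl, MgCl2, 50 μM GDP and saponin. Cold 10 μM GTP defined nonspecific binding; data were fitted by a four-parameter logistic.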

T1 sequence (Q14416 19-872): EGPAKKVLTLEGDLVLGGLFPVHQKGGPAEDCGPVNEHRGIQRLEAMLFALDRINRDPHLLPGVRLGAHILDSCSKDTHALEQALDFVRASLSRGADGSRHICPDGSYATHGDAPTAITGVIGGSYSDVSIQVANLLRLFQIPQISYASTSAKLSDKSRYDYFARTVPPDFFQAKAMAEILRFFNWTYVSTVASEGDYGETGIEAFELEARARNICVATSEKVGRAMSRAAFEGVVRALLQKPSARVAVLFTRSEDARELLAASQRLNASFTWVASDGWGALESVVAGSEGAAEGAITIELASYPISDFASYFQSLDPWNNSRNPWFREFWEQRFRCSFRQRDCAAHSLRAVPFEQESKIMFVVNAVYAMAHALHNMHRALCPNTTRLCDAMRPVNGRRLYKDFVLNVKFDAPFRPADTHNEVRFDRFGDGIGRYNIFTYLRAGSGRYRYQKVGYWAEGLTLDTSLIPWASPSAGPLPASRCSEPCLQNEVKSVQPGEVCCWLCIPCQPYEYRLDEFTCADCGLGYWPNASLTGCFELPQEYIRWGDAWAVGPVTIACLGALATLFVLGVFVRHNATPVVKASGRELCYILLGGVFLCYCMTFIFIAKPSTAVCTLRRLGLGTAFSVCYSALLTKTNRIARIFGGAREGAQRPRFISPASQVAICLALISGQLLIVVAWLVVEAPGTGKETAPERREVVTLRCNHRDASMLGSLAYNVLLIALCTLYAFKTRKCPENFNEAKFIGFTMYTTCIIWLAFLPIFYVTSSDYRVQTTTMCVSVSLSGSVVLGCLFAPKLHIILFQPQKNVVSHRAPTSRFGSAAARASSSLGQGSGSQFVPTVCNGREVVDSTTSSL

Row | Structure (SMILES) | melting point | EC50 [1]
1 | CC(C)CCn1ccc(-c2ccc(OCc3cccc(C#N)c3)cc2)c(C#N)c1=O [1-151] | 154 °C | 39.8 nM
2 | CC(C)CCn1ccc(N2CCC(c3cccc(C(F)(F)F)c3)CC2)c(C#N)c1=O [4-016] | 112 °C | 50.1 nM
3 | CC(C)CCn1ccc(N2CCC(C(=O)c3ccccc3)CC2)c(C#N)c1=O [4-012] | 296 °C | 398 nM
4 | CC(C)CCn1ccc(-c2ccc(CN(C)Cc3ccccn3)cc2)c(C#N)c1=O [1-212] | 294 °C | 1000 nM

More lines, now with the values ahead:

Row | melting point | EC50 [1] | Structure (SMILES)
5 | 188 °C | 1000 nM | COc1ccc(-c2ccn(CCOc3ccccc3)c(=O)c2C#N)cc1 [1-048]
6 | 120 to 121 °C | 6310 nM | CC(C)CCn1ccc(-c2ccc3c(c2)OCO3)c(C#N)c1=O [1-252]
7 | 168 °C | 63.1 nM | CC(C)CCn1ccc(-c2ccc(C(C)(C)C)cc2)c(C#N)c1=O [1-086]
8 | 103 °C | 5010 nM | CCCCn1ccc(-c2cccs2)c(C#N)c1=O [1-059]
